Measured values as given in patent publication US5179120A, “Porphycene compounds for photodynamic therapy” (Cytopharm, Inc., priority 1991, dated 1993).

Tests used:
[1] = Stability towards oxygen and light (observation during preparation); format: physicochemical; conditions: traces of oxygen in the presence of light
Protocol: At room temperature while stirring in the dark, 243 mg (248 μL, 1.6 mmol) DBU were added all at once to a solution of 14.8 mg (20 μmol) tetrakis(bromoethyl)porphycene in 50 mL of absolute THF. After thirty minutes, the agitator was turned off and the mixture left to stand at room temperature for two days. Subsequently the greenish-blue solution was treated with 80 mL of CH2 Cl2 and poured into 80 mL of 0.5% HCl. The organic phase was shaken out and washed with water and a 2% NaHCO3 solution, dried over Na2 SO4 and the solvent was evaporated under vacuum. The residue was chromatographed with CH2 Cl2 on aluminum oxide (Brockmann, II-III activity stage, column 2×10 cm) and the first green fraction was collected. The solvent was slowly evaporated under a slight vacuum and the remaining fine crystalline solid was washed with 3 mL of ice cooled, absolute pentane. Following drying under a high vacuum, 4.1 mg (10 μmol) tetravinylporphycene were obtained. […] The yield was 50%.
All reagents and solvents were purged of oxygen by introducing inert gas and all purification steps were carried out under subdued light, as was the reaction.

[2] = Solubility of the title compound in selected solvents; format: physicochemical
Description: Solubility of the title compound in selected solvents: […]

| SMILES | Stability (decomposition) [1] | Solubility of the title compound in selected solvents ([2]; CH2 Cl2) | Solubility of the title compound in selected solvents ([2]; CHCl3) | Solubility of the title compound in selected solvents ([2]; DEET) | Solubility of the title compound in selected solvents ([2]; DMF) | Solubility of the title compound in selected solvents ([2]; DMSO) | Solubility of the title compound in selected solvents ([2]; EtOH) | Solubility of the title compound in selected solvents ([2]; MeOH) | Solubility of the title compound in selected solvents ([2]; THF) | Solubility of the title compound in selected solvents ([2]; Toluene) | Solubility of the title compound in selected solvents ([2]; acetone) | Solubility of the title compound in selected solvents ([2]; ethyl acetate) | Solubility of the title compound in selected solvents ([2]; hexane) | Solubility of the title compound in selected solvents ([2]; i-propanol) | Solubility of the title compound in selected solvents ([2]; water) |
| --- | --- | --- | --- | --- | --- | --- | --- | --- | --- | --- | --- | --- | --- | --- | --- |
| C=CC1=Cc2nc1ccc1[nH]c(cc1C=C)c1nc(ccc3[nH]c2cc3C=C)C(C=C)=C1 [2,7,12,17-Tetravinylporphycene] | decomposed even with traces of oxygen in the presence of light |  |  |  |  |  |  |  |  |  |  |  |  |  |  |
| COCCC1=Cc2nc1ccc1[nH]c(cc1CCOC)c1nc(c(OC(C)=O)cc3[nH]c2cc3CCOC)C(CCOC)=C1 [9-Acetoxy-2,7,12,17-tetrakis(methoxyethyl)porphycene] |  | Excellent | Excellent | Good | Good | Good | Moderate | Moderate | Excellent | Good | Good | Excellent | Insoluble | Moderate | Insoluble |
